Experimental data: PubChem BioAssay (NCI)
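Cultured in 96-well plates, cells were exposed to test compound for 48 hours across five concentrations. Definition used: TGI = concentration required for complete inhibition of growth.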

Key:
Experiment in all cases: growth of human tumour cells (NCI), 48 h
[1] = tested on: M14 melanoma
[2] = tested on: 786-0 renal
[3] = tested on: SR leukemia
[4] = tested on: OVCAR-5 ovarian
[5] = tested on: SF-539 CNS
[6] = tested on: A549 NSCLC
[7] = tested on: UACC-257 melanoma
[8] = tested on: K-562 leukemia
[9] = tested on: T-47D breast
[10] = tested on: RPMI-8226 leukemia
[11] = tested on: SK-MEL-28 melanoma
[12] = tested on: OVCAR-4 ovarian
[13] = tested on: UACC-62 melanoma

CCOC(=O)C(NC(=O)CC)(Nc1ccc(F)cc1F)C(F)(F)F (configuration not stated)
TGI [1]: > 100 µM | TGI [2]: > 100 µM | TGI [3]: > 100 µM | TGI [4]: > 100 µM | TGI [5]: > 100 µM | TGI [6]: > 100 µM | TGI [7]: > 100 µM | TGI [8]: > 100 µM | TGI [9]: > 100 µM | TGI [10]: > 100 µM | TGI [11]: > 100 µM

CC1=CC(=O)N(n2c(-c3ccccc3)n[nH]c2=O)C1=O
TGI [1]: > 100 µM | TGI [2]: > 100 µM | TGI [12]: > 100 µM | TGI [13]: > 100 µM | TGI [4]: > 100 µM | TGI [5]: > 100 µM | TGI [6]: > 100 µM | TGI [7]: > 100 µM | TGI [8]: > 100 µM | TGI [9]: > 100 µM | TGI [10]: > 100 µM | TGI [11]: > 100 µM

CN(C)c1ccc(/C=C(\NC(=O)c2ccccc2)C(=O)Nc2cccc(C(=O)NCCCO)c2)cc1
TGI [1]: > 100 µM | TGI [2]: > 100 µM | TGI [12]: > 100 µM | TGI [13]: > 100 µM | TGI [4]: > 100 µM | TGI [5]: > 100 µM | TGI [6]: > 100 µM | TGI [7]: > 100 µM | TGI [8]: > 100 µM | TGI [9]: > 100 µM | TGI [10]: > 100 µM | TGI [11]: > 100 µM

COc1ccccc1NC(=O)CC(=O)N1N=C(c2ccccc2)C(N=Nc2ccc(Cl)cc2)C1=O (configuration not stated)
TGI [1]: > 100 µM | TGI [2]: 37 µM | TGI [3]: > 100 µM | TGI [12]: 56.6 µM | TGI [13]: 89.7 µM | TGI [4]: > 100 µM | TGI [5]: > 100 µM | TGI [6]: > 100 µM | TGI [7]: > 100 µM | TGI [8]: > 100 µM | TGI [10]: > 100 µM | TGI [11]: > 100 µM

NC(=O)Cn1c(=O)oc2cc(C(=O)CN3CCOCC3)ccc21
TGI [1]: > 100 µM | TGI [2]: > 100 µM | TGI [3]: > 100 µM | TGI [4]: > 100 µM | TGI [5]: > 100 µM | TGI [8]: > 100 µM | TGI [10]: > 100 µM | TGI [11]: > 100 µM

CC1=CC(=O)N(n2c(Cc3ccc(Cl)cc3)n[nH]c2=O)C1=O
TGI [1]: > 100 µM | TGI [2]: > 100 µM | TGI [3]: 38.7 µM | TGI [12]: > 100 µM | TGI [13]: 45.4 µM | TGI [4]: > 100 µM | TGI [5]: > 100 µM | TGI [6]: > 100 µM | TGI [7]: > 100 µM | TGI [8]: 72.2 µM | TGI [9]: > 100 µM | TGI [10]: 53.2 µM

CN(C)CC1CCC/C(=C\c2ccccc2)C1=O (configuration not stated)
TGI [2]: 6.9 µM | TGI [3]: > 100 µM | TGI [12]: 3.17 µM | TGI [13]: 20.2 µM | TGI [4]: 29 µM | TGI [5]: 14.3 µM | TGI [6]: 38.2 µM | TGI [7]: 7.45 µM | TGI [9]: 4.35 µM | TGI [11]: 6.04 µM

O=C(Nc1cccc(C(=O)NCCCO)c1)/C(=C/c1ccccc1)NC(=O)c1ccccc1
TGI [1]: > 100 µM | TGI [2]: > 100 µM | TGI [12]: > 100 µM | TGI [13]: > 100 µM | TGI [4]: > 100 µM | TGI [5]: > 100 µM | TGI [6]: > 100 µM | TGI [7]: > 100 µM | TGI [8]: > 100 µM | TGI [9]: > 100 µM | TGI [10]: > 100 µM | TGI [11]: > 100 µM

Cc1ccsc1C(=S)Nc1ccc(Cl)c(/C=N/OC(C)C)c1
TGI [1]: > 100 µM | TGI [2]: > 100 µM | TGI [3]: 48.7 µM | TGI [12]: 98.9 µM | TGI [13]: > 100 µM | TGI [4]: > 100 µM | TGI [5]: > 100 µM | TGI [6]: > 100 µM | TGI [7]: > 100 µM | TGI [9]: > 100 µM | TGI [10]: 34.1 µM | TGI [11]: > 100 µM

CCNc1nnc(-c2ccccc2Nc2ccccc2-c2nnc(NCC)s2)s1
TGI [1]: 40 µM | TGI [2]: 17 µM | TGI [3]: > 100 µM | TGI [12]: > 100 µM | TGI [13]: 35.3 µM | TGI [4]: 48.5 µM | TGI [6]: > 62 µM | TGI [7]: 90.3 µM | TGI [8]: > 100 µM | TGI [9]: > 84.8 µM | TGI [10]: 73.4 µM | TGI [11]: 55.2 µM

COc1ccc(-c2nc3c(C(=O)NCCN(C)C)cccc3c3ccccc23)cc1
TGI [1]: 3.93 µM | TGI [2]: 6.86 µM | TGI [3]: 6.96 µM | TGI [12]: 12.5 µM | TGI [13]: 4.66 µM | TGI [4]: 18.2 µM | TGI [5]: 4.87 µM | TGI [6]: 12.6 µM | TGI [7]: 3.56 µM | TGI [8]: 4.68 µM | TGI [9]: 29.7 µM | TGI [11]: 3.71 µM

CCCCC1(O)CC2CC1C(C)C2(C)C (configuration not stated)
TGI [1]: > 100 µM | TGI [2]: > 100 µM | TGI [3]: > 100 µM | TGI [12]: > 100 µM | TGI [13]: > 100 µM | TGI [4]: > 100 µM | TGI [5]: > 100 µM | TGI [6]: > 100 µM | TGI [7]: > 100 µM | TGI [8]: > 100 µM | TGI [10]: > 100 µM | TGI [11]: > 100 µM

Cc1nc2c3c(ccc2[nH]c1=O)C(=O)c1ccccc1C3=O
TGI [1]: > 100 µM | TGI [2]: > 100 µM | TGI [3]: > 100 µM | TGI [12]: > 100 µM | TGI [13]: > 100 µM | TGI [4]: > 100 µM | TGI [5]: > 100 µM | TGI [6]: > 100 µM | TGI [7]: > 100 µM | TGI [8]: > 100 µM | TGI [11]: > 100 µM

CN1CC2=C(NC(=S)NC2c2ccccc2Cl)/C(=C/c2ccccc2Cl)C1 (configuration not stated)
TGI [1]: > 100 µM | TGI [2]: > 100 µM | TGI [3]: 70.5 µM | TGI [12]: 76.7 µM | TGI [13]: > 100 µM | TGI [4]: > 100 µM | TGI [5]: > 100 µM | TGI [6]: > 100 µM | TGI [7]: > 100 µM | TGI [8]: > 100 µM | TGI [9]: > 100 µM | TGI [11]: > 100 µM

COc1cc(C2c3cc4c(cc3OC(NCCO)C2C)OCO4)cc(OC)c1O (configuration not stated)
TGI [1]: > 100 µM | TGI [2]: > 100 µM | TGI [12]: > 100 µM | TGI [13]: > 100 µM | TGI [4]: > 100 µM | TGI [5]: 42.2 µM | TGI [6]: > 100 µM | TGI [9]: > 100 µM | TGI [10]: 19 µM | TGI [11]: > 100 µM

CC(C)(C)[Si](C)(C)OCC1OC(n2ccc(=O)[nH]c2=O)C(O[Si](C)(C)C(C)(C)C)[C@]12O[C@@H]2CO (some centres not stated)
TGI [1]: 43.2 µM | TGI [2]: 44.6 µM | TGI [3]: > 100 µM | TGI [12]: 47.4 µM | TGI [13]: 36.8 µM | TGI [4]: 40.6 µM | TGI [5]: 47.7 µM | TGI [6]: 26.6 µM | TGI [7]: 39.7 µM | TGI [8]: > 100 µM | TGI [10]: > 100 µM | TGI [11]: 34.6 µM

C/C=C\C(CC(=O)OC)CC(=O)N(CCC1CN(S(=O)(=O)C(F)(F)F)c2ccccc21)Cc1ccc(OC)cc1OC (configuration not stated)
TGI [1]: > 100 µM | TGI [2]: > 100 µM | TGI [12]: > 100 µM | TGI [4]: > 100 µM | TGI [5]: > 100 µM | TGI [6]: > 100 µM | TGI [7]: > 100 µM | TGI [8]: > 100 µM | TGI [9]: > 100 µM | TGI [10]: > 100 µM | TGI [11]: > 100 µM

Cc1cc2c(cc1Cl)SC(NNC1=NCCN1)=NS2(=O)=O
TGI [1]: > 10 µM | TGI [2]: > 10 µM | TGI [12]: > 10 µM | TGI [13]: > 10 µM | TGI [4]: > 10 µM | TGI [5]: > 10 µM | TGI [6]: > 10 µM | TGI [7]: > 10 µM | TGI [8]: > 10 µM | TGI [9]: > 10 µM | TGI [10]: > 10 µM | TGI [11]: > 10 µM

C=CC1(c2ccc3ccccc3c2)OCC(CC)O1 (configuration not stated)
TGI [1]: > 100 µM | TGI [2]: > 100 µM | TGI [3]: 61.4 µM | TGI [12]: > 100 µM | TGI [13]: 88.3 µM | TGI [4]: > 100 µM | TGI [6]: > 100 µM | TGI [7]: > 100 µM | TGI [8]: 85.1 µM | TGI [9]: > 100 µM | TGI [10]: > 100 µM | TGI [11]: > 100 µM
